Experimental data: ChEMBL document CHEMBL3124877, “Structure-activity-relationship studies around the 2-amino group and pyridine core of antimalarial 3,5-diarylaminopyridines lead to a novel series of pyrazine analogues with oral in vivo activity” (J Med Chem, 2013)

Key:
[1] = (§1) Half life in human liver microsomes by LC-MS/MS analysis; type: ADME; conditions: liver microsomes
in vitro = conditions: human, liver microsomes
physchem = conditions: octanol/water, pH 7.4
Plasma = experiment: Apparent plasma concentration in mouse infected with Plasmodium berghei ANKA at 3 mg/kg, po measured after 24 hrs; type: ADME, organism-based; parameters: dose 3 mg/kg, route oral; conditions: in vivo
[2] = Apparent Cmax in mouse infected with Plasmodium berghei ANKA at 3 mg/kg, po measured after 24 hrs; type: ADME, organism-based; parameters: dose 3 mg/kg, route oral; conditions: in vivo
[3] = Apparent AUC in mouse infected with Plasmodium berghei ANKA at 3 mg/kg, po measured after 24 hrs; type: ADME, organism-based; parameters: time < 24 hr, dose 3 mg/kg, route oral; conditions: in vivo
Liver microsome [4] = experiment: Metabolic stability in rat liver microsomes; type: ADME
Liver microsome [5] = experiment: as §1; type: ADME; conditions: microsomes
Liver microsome [6] = conditions: human, microsomes

| half-life [1] | microsomal CLint (in vitro) | logD (physchem) | Cave (Plasma) | Cmax [2] | AUC at 24 h [3] | Stability (Liver microsome [4]) | t1/2 (Liver microsome [5]) | CLH (Liver microsome [6]) | SMILES |
| --- | --- | --- | --- | --- | --- | --- | --- | --- | --- |
| 4.68 h | 6.2 µL/min/mg | 2.2 |  |  |  |  |  |  | COc1ccc(-c2cc(-c3ccc(S(C)(=O)=O)cc3)cnc2N)cn1 |
|  |  | 1.7 |  |  |  |  |  |  | COc1ccc(-c2cc(-c3ccc(S(C)(=O)=O)cc3)cnc2O)cn1 |
| > 4.17 h | < 7 µL/min/mg | 3.2 | 10 nM | 1100 nM | 0.01 µM·h |  |  |  | Nc1ncc(-c2ccc(C(=O)N3CCOCC3)cc2)nc1-c1ccc(C(F)(F)F)cc1 |
| 3.97 h | 7.3 µL/min/mg | 3.3 |  |  |  |  |  |  | COc1ccc(-c2cc(-c3ccc(S(C)(=O)=O)cc3)cnc2I)cn1 |
| > 4.17 h | < 7 µL/min/mg |  |  |  |  |  |  |  | Nc1ncc(-c2ccc(C(=O)N3CCOCC3)cc2)nc1-c1ccc(C(F)(F)F)nc1 |
| 1.85 h | 12 µL/min/mg | 2.8 | 10 nM | 2000 nM | 0.01 µM·h |  |  |  | CNS(=O)(=O)c1ccc(-c2cnc(N)c(-c3ccc(C(F)(F)F)nc3)n2)cc1 |
| 2.57 h | 11 µL/min/mg | 2.3 |  |  |  |  |  |  | COc1ccc(-c2nc(-c3ccc(S(C)(=O)=O)cc3)cnc2N)cn1 |
| 2.58 h | 11 µL/min/mg | 2.8 | 300 nM | 500 nM | 6.4 µM·h |  |  |  | CS(=O)(=O)c1ccc(-c2cnc(N)c(-c3ccc(C(F)(F)F)cc3)n2)cc1 |
| > 4.17 h | < 7 µL/min/mg | 2.8 | 1000 nM | 1500 nM | 24.3 µM·h | Stable |  |  | CS(=O)(=O)c1ccc(-c2cnc(N)c(-c3ccc(C(F)(F)F)nc3)n2)cc1 |
|  |  | 2.5 |  |  |  |  | 0.683 h | 11.3 µL/min/mg | COc1ccc(-c2cncc(-c3ccc(S(C)(=O)=O)cc3)c2)cn1 |
|  |  | 2.3 |  |  |  |  |  |  | COc1ccc(-c2nc(-c3ccc(S(C)(=O)=O)cc3)ccc2N)cn1 |
| 2.03 h | 14.2 µL/min/mg | 3.7 |  |  |  |  |  |  | CCOc1ncc(-c2ccc(S(C)(=O)=O)cc2)cc1-c1ccc(OC)nc1 |
| > 4.17 h | < 7 µL/min/mg | 1.7 |  |  |  |  |  |  | COc1ccc(-c2cc(-c3ccc(S(C)(=O)=O)cc3)nnc2N)cn1 |
|  |  | 3 |  |  |  |  |  |  | COc1ccc(-c2cc(-c3ccc(S(C)(=O)=O)cc3)cnc2C(F)(F)F)cn1 |
| > 4.17 h | < 7 µL/min/mg | 2.8 |  |  |  |  |  |  | COc1ccc(-c2cc(-c3ccc(S(C)(=O)=O)cc3)ccc2N)cn1 |
| > 4.17 h | < 7 µL/min/mg | 1.8 |  |  |  |  |  |  | COc1ccc(-c2cc(-c3ccc(S(C)(=O)=O)cc3)cnc2NCCCCN)cn1 |
| > 4.17 h | < 7 µL/min/mg | 2.9 |  |  |  |  |  |  | COc1ccc(-c2csc3c(-c4ccc(S(C)(=O)=O)cc4)cnc(N)c23)cn1 |
| 3.62 h | 8 µL/min/mg | 3.1 | 10 nM | 1100 nM | 0.01 µM·h |  |  |  | CCS(=O)(=O)c1ccc(-c2cnc(N)c(-c3ccc(C(F)(F)F)nc3)n2)cc1 |
|  |  | 2.6 |  |  |  |  |  |  | CNc1ncc(-c2ccc(S(C)(=O)=O)cc2)cc1-c1ccc(OC)nc1 |
